Experimental data taken from US6579886B2, “Selective iglur5 receptor antagonists” (Eli Lilly and Company, priority 1999, dated 2003).
Structures can show the parent of a compound that is named as a salt. Values belong to the compound of their own block, whether it stands above or below them.

Key:
[1] = biological target: T1, iGluR5 receptor (relative to iGluR2 AMPA receptor subtype) (Homo sapiens, UniProt P39086); assay: iGluR5 antagonist binding affinity profile: displacement of 3[H] kainate (iGluR5) versus 3[H] AMPA (iGluR2) in stably transfected HEK293 cells; details: HEK293 cells stably transfected with human iGluR receptors; 3[H] kainate vs 3[H] AMPA displacement
T1 construct: expressed in transfected cells; host or cells: HEK293 cells, stably transfected
T1 sequence (P39086 31-918): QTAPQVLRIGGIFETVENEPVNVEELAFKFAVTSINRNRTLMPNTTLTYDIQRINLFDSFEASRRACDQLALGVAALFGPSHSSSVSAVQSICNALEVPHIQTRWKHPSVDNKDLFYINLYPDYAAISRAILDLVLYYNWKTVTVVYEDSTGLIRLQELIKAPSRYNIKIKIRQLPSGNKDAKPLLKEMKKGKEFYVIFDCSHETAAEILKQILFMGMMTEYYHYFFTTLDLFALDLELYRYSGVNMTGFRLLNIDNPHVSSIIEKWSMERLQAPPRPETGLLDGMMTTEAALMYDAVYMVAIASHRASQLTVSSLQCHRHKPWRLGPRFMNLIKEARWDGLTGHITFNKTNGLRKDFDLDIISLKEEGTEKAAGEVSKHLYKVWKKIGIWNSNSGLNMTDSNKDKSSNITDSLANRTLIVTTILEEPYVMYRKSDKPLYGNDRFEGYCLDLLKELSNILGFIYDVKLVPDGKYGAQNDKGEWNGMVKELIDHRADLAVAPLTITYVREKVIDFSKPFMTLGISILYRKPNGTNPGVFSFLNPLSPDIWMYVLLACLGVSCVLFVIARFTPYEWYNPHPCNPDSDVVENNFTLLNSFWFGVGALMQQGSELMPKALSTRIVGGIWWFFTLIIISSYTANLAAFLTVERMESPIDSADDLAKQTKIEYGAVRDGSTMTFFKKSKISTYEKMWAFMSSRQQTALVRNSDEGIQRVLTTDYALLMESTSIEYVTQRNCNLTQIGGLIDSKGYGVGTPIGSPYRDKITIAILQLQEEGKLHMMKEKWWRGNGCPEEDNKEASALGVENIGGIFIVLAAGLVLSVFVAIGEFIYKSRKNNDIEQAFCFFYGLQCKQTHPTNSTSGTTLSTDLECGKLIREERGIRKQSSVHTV
Excerpt: To establish that the iGluR5 receptor subtype is mediating neurogenic protein extravasation, a functional characteristic of migraine, the binding affinity of the compounds of formula I to the iGluR5 receptor is first measured using standard methods. For example, the activity of compounds acting at the iGluR5 receptor can be determined by radiolabelled ligand binding studies at the cloned and expressed human iGluR5 receptor (Korczak et al., 1994, Recept. Channels 3; 41-49), and by whole cell voltage clamp electrophysiological recordings of currents in acutely isolated rat dorsal root ganglion neurons (Bleakman et al., 1996, Mol. Pharmacol. 49; 581-585). The selectivity of compounds acting at the iGluR5 receptor subtype can then be determined by comparing antagonist activity at the iGluR5 receptor with antagonist activity at other AMPA and kainate receptors. […] AMPA by increasing concentrations of antagonist is measured on iGluR1, iGluR2, iGluR3, and iGluR4 expressing cells, while displacement of ^3[H] kainate (KA) is measured on iGluR5, iGluR6, iGluR7, and KA2-expressing cells. As an indicia of selectivity, the ratio of binding affinity to the iGluR2 AMPA receptor subtype, versus the binding affinity to iGluR5 kainate receptor subtype, is also determined.

[2] = test system: neurogenic dural protein extravasation; assay: Animal model of dural protein extravasation (trigeminal ganglion stimulation, Evans Blue); assay type: in vivo, rats or guinea pigs; details: given orally; approximated from dose-response curve
Protocol: Methods, 81(1,2) 19-24 (1998). For example, the following animal model is employed to determine the ability of each of the compounds of formula I to inhibit protein extravasation, an exemplary functional assay of the neuronal mechanism of migraine.
Harlan Sprague-Dawley rats (225-325 g) or guinea pigs from Charles River Laboratories (225-325 g) are anesthetized with sodium pentobarbital intraperitoneally (65 mg/kg or 45 mg/kg respectively) and placed in a stereotaxic frame (David Kopf Instruments) with the incisor bar set at −3.5 mm for rats or −4.0 mm for guinea pigs. Following a midline sagital scalp incision, two pairs of bilateral holes are drilled through the skull (6 mm posterially, 2.0 and 4.0 mm laterally in rats; 4 mm posteriorly and 3.2 and 5.2 mm laterally in guinea pigs, all coordinates referenced to bregma). […]
A fluorescence microscope (Zeiss) equipped with a grating monchromator and a spectrophotometer is used to quantify the amount of Evans Blue dye in each sample. An excitation wavelength of approximately 535 nm is utilized and the emission intensity at 600 nm was determined. […] This facilitates the computer-controlled movement of the stage with fluorescence measurements at 25 points ([…]) on each dural sample. The mean and standard deviation of the measurements are determined by the computer. […]

selectivity: ratio of binding affinity for the iGluR5 receptor over the iGluR2 receptor [1]: 5 fold
SMILES: O=C(O)[C@@H]1C[C@H]2C[C@@H](Cc3ccccc3-c3nnn[nH]3)CC[C@H]2CN1

melting point: 99 to 101 °C
SMILES: CCOC(=O)c1ncn(C[C@H]2CC[C@H]3CN[C@H](C(=O)OCC)C[C@H]3C2)c1C(=O)OCC (as salt: hydrochloride) [Example 11, [3S 4aR,6S,8aR]-Ethyl 6-{[4,5-Bis(ethoxycarbonyl)-1H-imidazol-1-yl]methyl}1 2,3,4,4a,5,6,7,8,8a-decahydroisoquinoline-3-carboxylate Dihydrochloride]

SMILES: CCOC(=O)c1cn(C[C@H]2CC[C@H]3CN[C@H](C(=O)OCC)C[C@H]3C2)cn1 [Example 3, [3S,4aR,6S,8aR]-Ethyl-6-((4-ethoxycarbonyl-1H-imidazol-1-yl)methyl)-1,2,3,4,4a,5,6,7,8,8a-decahydroisoquinoline-3-carboxylate]
ID100 (dose that inhibits the extravasation by 100%) [2]: 0.0003 µg/kg
